From EP4696306A1, “ADENOSINE TRIPHOSPHATE SECRETION INHIBITOR, HEPATIC STELLATE CELL ACTIVATION INHIBITOR, HEPATIC STELLATE CELL DEACTIVATOR, HEPATIC FIBROSIS THERAPEUTIC AGENT, NON-ALCOHOLIC STEATOHEPATITIS THERAPEUTIC AGENT, PSORIASIS THERAPEUTIC AGENT, AND USE OF COMPOUND FOR PRODUCING ADENOSINE TRIPHOSPHATE …” (KURUME UNIVERSITY, priority 2023, dated 2024)

Legend:
[1] = tested on: Thioacetamide-induced hepatic fibrosis; experiment: Thioacetamide-induced hepatic fibrosis in mice; assay type: in vivo
Procedure: Wild-type mice, […] (manufactured by Charles River Japan), were housed on a 12-hour light/dark cycle and fed a standard solid diet (5.4% fat, CRF-1, manufactured by Oriental Yeast Co., Ltd.) ad libitum. Thioacetamide (TAA, manufactured by FUJIFILM Wako Pure Chemical Corporation) was dissolved in physiological saline at 0.9% w/v. Eight-week-old mice were randomly assigned to three groups and continuously treated for 9 weeks according to the following scheme. At Week 9, all mice were euthanized 1 hour after administration of physiological saline or IMG.
Normal control group (N = 6): Physiological saline was intraperitoneally administered to mice three times per week. Eight hours after each administration, a vehicle was orally administered to the mice.
TAA group (N = 6): TAA(50 mg/kg, intraperitoneal) was administered to mice. Eight hours thereafter, physiological saline was orally administered to the mice. This treatment was performed three times per week for a total of 9 weeks.
TAA + IMG group (N = 6): During the first week, physiological saline was orally administered to mice. Thereafter, imeglimin (IMG) at 200 mg/kg was orally administered three times per week for 8 weeks. The administration of IMG was performed 8 hours after intraperitoneal administration of TAA (50 mg/kg).
For immunohistochemical analysis, liver samples were fixed in 4% paraformaldehyde, embedded in paraffin, and then sectioned. The sections were stained with HE or PSR. In addition, the paraffin-embedded sections were subjected to immunostaining using an α-SMA monoclonal antibody (1:500, catalog No. A5228, manufactured by Sigma-Aldrich) and an F4/80 monoclonal antibody (1:200, catalog No. MCA497GA, manufactured by AbD Serotec). The cell specimens were observed using a microscope (BZ-X700 series, manufactured by Keyence) or a confocal laser microscope (FV1000, manufactured by Olympus Corporation). The number of F4/80-positive cells was counted in four high-power fields per section. The α-SMA-positive area and the PSR-positive area were quantified using the image analysis software Fiji-ImageJ (1.54f).
A histological score was determined by a blinded investigator using the NAFLD histological scoring system of the Nonalcoholic Steatohepatitis Clinical Research Network. The total NAFLD activity score (NAS) was calculated from the total of the individual scores for steatosis ([…]), lobular inflammation (F4/80), and hepatocyte ballooning. The range of each parameter was 0 to 2 (ballooning) or 3 (the other two scores), where 0 indicates normal and 2 or 3 indicates severe. Staging of fibrosis was based on the NASH fibrosis stages, and a fibrosis stage ranging from 0 to 4 was determined according to Reference H (David E. Kleiner et al., 2005, Design and validation of a histological scoring system for nonalcoholic fatty liver disease, Hepatology, 41, 1313-1321).
All results are expressed as the mean ± standard error of the mean (S.E.M.). Statistical analyses were performed using GraphPad Prism 7.0 (GraphPad Software). Significance upon comparison between two groups was evaluated by an unpaired two-tailed Student's t-test. An unpaired two-tailed Student's t-test was used. Statistical significance among three or more groups was determined by two-way analysis of variance (ANOVA) with Tukey's or Dunnett's post hoc test. Coloc2 was used to perform image analysis, automatic thresholding, and pixel intensity correlation for statistical processing. Statistical significance was assumed when the P value was < 0.05.
In accordance with Example 15, immunostaining of α-SMA in liver sections and observation by fluorescence microscopy were performed for the normal control group, the TAA group, and the TAA + IMG group, and for a TAA + Clo group, which was treated in the same manner as the TAA + IMG group except that clodronate, instead of imeglimin, was administered at 30 mg/kg by blending it in the drinking water from 1 week after the start of TAA administration. […]

[2] = tested on: human epidermal keratinocytes; experiment: Imiquimod-induced ATP secretion in keratinocytes; assay type: cell-based; conditions: 18 hours incubation, imiquimod 15 minutes, N = 8
Procedure: In the same manner as in Example 1, keratinocytes were cultured at 2.5×10^4 cells/well in a 24-well plate at 37°C in 5% CO2 for 4 days. The medium was replaced with HBSS (manufactured by Gibco) supplemented with 1 µM or 10 µM imeglimin, and incubation was performed at 37°C in 5% CO2 for 18 hours. Thereafter, imiquimod was added thereto at 1 µg/ml or 0.5 µg/ml, and incubation was performed for 15 minutes, followed by collection of 200 µl of the supernatant. The supernatant was immediately treated on a heat block at 95°C for 10 minutes, and ATP in the supernatant was quantified using a ATP Assay Kit - Luminescence (manufactured by Dojindo) (N = 8).

[3] = 1 g of imeglimin hydrochloride daily for one week; cited from earlier work
[4] = imeglimin 200 mg/kg orally three times per week for 8 weeks

| Structure (SMILES) | α-SMA-positive reaction in liver, increase by TAA ([1]; clodronate 30 mg/kg in the drinking water, immunostaining) | α-SMA-positive area fraction ([1]; clodronate 30 mg/kg in the drinking water, normal control 0.14 ± 0.01, TAA group 2.79 ± 0.33, four measurements per group) | α-SMA in liver sections (immunostaining and fluorescence microscopy) ([1]; imeglimin 200 mg/kg orally) | α-SMA-positive reaction by Western blotting of liver tissue, increase due to TAA ([1]; imeglimin 200 mg/kg orally) | fibrosis score, increase by TAA [1, 4] | liver histology (HE staining) [1, 4] | positive reaction of F4/80-positive macrophages, increase by TAA [1, 4] | α-SMA-positive reaction (activation of hepatic stellate cells), increase by TAA [1, 4] | PSR staining-positive area (collagen fibers) ([1]; imeglimin 200 mg/kg orally three times per week for 8 weeks, versus TAA group) | ATP secretion promoted by imiquimod ([2]; 1 µM imeglimin) | ATP secretion promoted by imiquimod ([2]; 10 µM imeglimin) | blood imeglimin concentration [3] |
| --- | --- | --- | --- | --- | --- | --- | --- | --- | --- | --- | --- | --- |
| O=P(O)(O)C(Cl)(Cl)P(=O)(O)O [clodronate] | markedly suppressed | 0.71 ± 0.10 |  |  |  |  |  |  |  |  |  |  |
| C[C@H]1N=C(N(C)C)N=C(N)N1 [imeglimin] |  |  | effect similar to that of clodronate | markedly suppressed | suppressed | reduced destruction of the lobular structure, hepatocyte ballooning, and inflammatory cell infiltration | strongly suppressed | strongly suppressed | significantly reduced | strongly inhibited | strongly inhibited | 9 µM |
